Source: US12377112B2, “Methods of treating neurocognitive disorders, chronic pain and reducing inflammation” (priority 2019, dated 2025)

Assays:
[1] = system: mice; assay: Haloperidol-induced catalepsy model; assay type: in vivo, mouse; settings: for Haloperidol-induced catalepsy (significantly reduced): FIG. 17 (24 hours after administration)
Method: The potential anti-akinetic effect of psilocybin in mice was investigated. Psilocybin (1 mg/kg, 3 mg/kg, or 10 mg/kg), chlorstyril caffeine (CSC), or vehicle was administered one hour, 24 hours, or one week prior to administration of haloperidol.
After administration of haloperidol, a catalepsy test was administered to each mouse. During the test, the forelimbs of the mice were placed on a catalepsy apparatus. The latency time was defined as the time necessary for the mouse to put the forelimbs on the table. The cut off time was set as 3 minutes. Catalepsy was evaluated every 45 minutes for 270 minutes after the Haloperidol injection.

[2] = system: healthy subjects; assay: Phase 1 study: Positive and Negative Affect Schedule (PANAS); assay type: in vivo, human; settings: for PANAS-Negative, change from baseline, LS mean / PANAS-Positive, change from baseline, LS mean: Post-Treatment Day 0
Excerpt: In some embodiments, the Positive and Negative Affect Schedule (PANAS) is used to evaluate the safety and/or efficacy of psilocybin. The PANAS measures the acute emotional drug effects and comprises 2 mood scales that measure positive and negative affect. Positive affect refers to the propensity to experience positive emotions and interact with others positively. Negative affect involves experiencing the world in a more negative way. Subjects respond to 10 questions associated with negative affect and 10 questions associated with positive affect. The questions are scaled using a 5-point scale that ranges from “slightly or not at all (1)” to “extremely (5)”. A total higher score on the positive affect questions indicates more of a positive effect while a lower score on the negative affect questions indicates less of a negative affect. In some embodiments, after treating according to the methods of the disclosure, a subject experiences a decrease in negative affect score of the PANAS, between about 5% and about 100%, for example about 5%, about 10%, about 15%, about 20%, about 25%, about 30%, about 35%, about 40%, about 45%, about 50%, about 55%, about 60%, about 65%, about 70%, about 75%, about 80%, about 85%, about 90%, about 95%, or about 100%, compared to prior to treatment. In some embodiments, after treating according to the methods of the disclosure, a subject experiences an increase in positive affect score of the PANAS, between about 5% and about 100%, for example about 5%, about 10%, about 15%, about 20%, about 25%, about 30%, about 35%, about 40%, about 45%, about 50%, about 55%, about 60%, about 65%, about 70%, about 75%, about 80%, about 85%, about 90%, about 95%, or about 100%, about 110%, about 120%, about 130%, about 140%, about 150%, about 160%, about 170%, about 180%, about 190%, about 200%, about 210%, about 220%, about 230%, about 240%, about 250%, about 260%, about 270%, about 280%, about 290%, or about 300%, or more, compared to prior to treatment.
The effects of psilocybin usually started about 20 to 30 min after administration, becoming most intense in the first 90 to 120 min and gradually subsiding in about 5 to 6 hours. The subjects were asked to remain in the room for the duration of the session regardless of the intensity of the effects, preferably lying down and mostly silent unless they have a concern or need to communicate a discomfort or seek reassurance from the therapist, or use the restroom. A light meal and fruit were available for the subject after the session. After the acute effects of study drug administration had subsided, all subjects were assessed for safety and asked to complete the following assessments: PANAS and 5D-ASC. Medications used, if any, during the study drug administration session, and adverse events were recorded. The subjects also discussed their psilocybin experience with their therapist. The subject was discharged 6 to 8 hours post dose when, in the opinion of the investigator, the acute effects of psilocybin were resolved. After the acute effects of study drug administration subsided, subjects returned home accompanied by a family member, friend, or chaperone. The therapists checked with the subjects by phone at the end of the day to ensure that the subject arrived home safely.
The Positive and Negative Affects Schedule (PANAS) score was also evaluated to measure the effect of psilocybin.

## CN(C)CCc1c[nH]c2cccc(OP(=O)(O)O)c12 [Psilocybin, psilocybin]
[1]; 1 mg/kg
  Haloperidol-induced catalepsy (significantly reduced): 90 s
[1]; 1 mg/kg, FIG. 18 (24 hours after administration)
  Start of positive effect on catalepsy after haloperidol: 135 min
[1]; 1 mg/kg, one hour prior to the test
  Time after haloperidol injection of decrease in descent latency: 270 min
[1]; 3 mg/kg, 1 week prior to the test
  Time after haloperidol from which descent latency is significantly decreased: ≥ 224 min
[1]; 3 mg/kg
  Haloperidol-induced catalepsy (significantly reduced): 60 s
[1]; 3 mg/kg, FIG. 18 (24 hours after administration)
  Start of reduction in descent latency after haloperidol, lasting to 270 minutes: 45 min
[1]; 3 mg/kg, one hour prior to the test
  Time after haloperidol injection from which descent latency is significantly decreased: ≥ 225 min
[1]; 10 mg/kg
  Haloperidol-induced catalepsy (significantly reduced): 75 s
[1]; 10 mg/kg, FIG. 18 (24 hours after administration)
  Start of positive effect on catalepsy after haloperidol: 90 min
[1]; 10 mg/kg, one hour prior to the test
  Time after haloperidol injection from which descent latency is significantly decreased: ≥ 180 min
[2]; 25 mg, baseline to day of dosing
  PANAS negative affect, mean increase: 1.3
[2]; Psilocybin 10 mg
  PANAS-Negative, change from baseline, LS mean: −0.6
  PANAS-Positive, change from baseline, LS mean: 0.7
[2]; Psilocybin 25 mg
  PANAS-Negative, change from baseline, LS mean: 1.3
  PANAS-Positive, change from baseline, LS mean: −0.4
